Patent US7109243B2 (IRM LLC, priority 2003, dated 2006)

How the values were obtained:
Cathepsin K = molecular target: T1, Cathepsin K (Homo sapiens, UniProt P43235); test: Cathepsin K inhibition assay (fluorogenic peptide substrate); selectivity ratio vs cathepsin S; format: biochemical; conditions: ratio of cathepsin K inhibition constant to cathepsin S inhibition constant; Table II
T1 sequence (P43235 115-329): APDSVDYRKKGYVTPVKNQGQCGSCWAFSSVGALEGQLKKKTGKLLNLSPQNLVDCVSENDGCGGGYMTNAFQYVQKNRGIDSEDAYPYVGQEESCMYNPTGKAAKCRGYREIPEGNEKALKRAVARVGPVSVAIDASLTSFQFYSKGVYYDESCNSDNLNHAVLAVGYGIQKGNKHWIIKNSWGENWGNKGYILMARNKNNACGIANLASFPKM
In short: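 Inhibition constants for competitive inhibitors come from apparent values fitted to enzyme progress curves. Substrate, acetyl-Lys-His-Pro-Lys-aminocarbamoylcoumarin (40 μM final), starts the reaction; fluorescence rise read at 380 nm excitation, 450 nm emission. Selectivity ratio: other cathepsin constant over cathepsin S constant.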

Cathepsin S = Cathepsin S (Homo sapiens, UniProt P25774); test: Cathepsin S inhibition assay (fluorogenic peptide substrate); format: biochemical; conditions: Table II, compounds of Formula I; read-out: Ki Cat. S
Chain of Cathepsin S (P25774 115-331, species assumed): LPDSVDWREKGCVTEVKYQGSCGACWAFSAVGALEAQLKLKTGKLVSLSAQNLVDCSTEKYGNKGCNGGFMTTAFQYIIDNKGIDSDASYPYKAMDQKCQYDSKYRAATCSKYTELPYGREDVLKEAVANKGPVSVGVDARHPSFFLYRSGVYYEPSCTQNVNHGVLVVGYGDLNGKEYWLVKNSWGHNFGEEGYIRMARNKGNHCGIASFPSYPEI
In short: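 Ki values come from nonlinear fitting of inhibited hydrolysis rates, taking free and total inhibitor concentrations as equal. Rates measured as rising fluorescence at 380/450 nm after reaction start with 50 μM final acetyl-HPVK-aminocarbamoylcoumarin.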

Selectivity for Cat. S over Cat. K (Cathepsin K)	Ki (Cathepsin S)	Compound
++ (++, >100)	< 100 nM	COc1ccc(NCCNC(=O)[C@H](CC2CCCCC2)NC(=O)c2c[nH]c3ccccc23)cc1 [Compound 185, (S)-1H-Indole-3-carboxylic acid {2-cyclohexyl-1-[2-(4-methoxy-phenylamino)-ethylcarbamoyl]-ethyl}-amide]
++ (++, >100)	< 100 nM	COc1ccc(NCCNC(=O)[C@H](CC2CCCCC2)NC(=O)c2ccc3ncsc3c2)cc1 [Compound 186, (S)-Benzothiazole-6-carboxylic acid {2-cyclohexyl-1-[2-(4-methoxy-phenylamino)-ethylcarbamoyl]-ethyl}-amide]
+ (+, >10)	< 100 nM	COc1ccc(NCCNC(=O)[C@H](CC2CCCCC2)NC(=O)c2cc(-c3ccc(OC)cc3)cs2)cc1 [Compound 191, (S)-4-(4-Methoxy-phenyl)-thiophene-2-carboxylic acid {2-cyclohexyl-1-[2-(4-methoxy-phenylamino)-ethylcarbamoyl]-ethyl}-amide]
+++ (+++, >1000)	< 100 nM	COc1ccc(NCCNC(=O)[C@H](CC2CCCCC2)NC(=O)[C@@H](C)c2ccccc2)cc1 [Compound 192, N-{2-Cyclohexyl-1-(S)-[2-(4-methoxy-phenylamino)-ethylcarbamoyl]-ethyl}-2-(S)-phenyl-propionamide]
++ (++, >100)	< 100 nM	COc1ccc(NCCNC(=O)[C@H](CC2CCCCC2)NC(=O)c2ccc(-c3cc(C(F)(F)F)ccc3Cl)o2)cc1 [Compound 193, (S)-5-(2-Chloro-5-trifluoromethyl-phenyl)-furan-2-carboxylic acid {2-cyclohexyl-1-[2-(4-methoxy-phenylamino)-ethylcarbamoyl]-ethyl}-amide]
+ (+, >10)	< 1000 nM	O=C(N[C@@H](CC1CCCCC1)C(=O)NCCNc1ccc(OC(F)(F)F)cc1)c1ccc(-c2ccccc2Cl)cc1 [Compound 194, (S)-2′-Chloro-biphenyl-4-carboxylic acid {2-cyclohexyl-1-[2-(4-trifluoromethoxy-phenylamino)-ethylcarbamoyl]-ethyl}-amide]
++ (++, >100)	< 1000 nM	COc1ccc(NCCNC(=O)[C@H](CC2CCCCC2)NC(=O)c2cccc(CN)c2)cc1 [Compound 199, (S)-3-Aminomethyl-N-{2-cyclohexyl-1-[2-(4-methoxy-phenylamino)-ethylcarbamoyl]-ethyl}-benzamide]
++ (++, >100)	< 100 nM	O=C(N[C@@H](CC1CCCCC1)C(=O)NCCNc1ccc(OC(F)(F)F)cc1)c1ccc(-c2ccccc2F)s1 [Compound 201, (S)-5-(2-Fluoro-phenyl)-thiophene-2-carboxylic acid {2-cyclohexyl-1-[2-(4-trifluoromethoxy-phenylamino)-ethylcarbamoyl]-ethyl}-amide]
+++ (+++, >1000)	< 100 nM	COc1ccc(NCCNC(=O)[C@H](CCCC2CCCCC2)NC(=O)c2cccc(C)c2)cc1 [Compound 203, (S)-N-{4-Cyclohexyl-1-[2-(4-methoxy-phenylamino)-ethylcarbamoyl]-butyl}-3-methyl-benzamide]
++ (++, >100)	< 100 nM	O=C(N[C@@H](CC1CCCCC1)C(=O)NCCNc1ccc(OC(F)(F)F)cc1)c1ccc(-c2ccc(C(F)(F)F)cc2)s1 [Compound 205, (S)-5-(4-Trifluoromethyl-phenyl)-thiophene-2-carboxylic acid {2-cyclohexyl-1-[2-(4-trifluoromethoxy-phenylamino)-ethylcarbamoyl]-ethyl}-amide]

More lines, now with the values behind:

Compound	Selectivity for Cat. S over Cat. K (Cathepsin K)	Ki (Cathepsin S)
COc1ccc(NCCNC(=O)[C@H](CC2CCCCC2)NC(=O)c2ccc(Br)o2)cc1 [Compound 177, (S)-5-Bromo-furan-2-carboxylic acid {2-cyclohexyl-1-[2-(4-methoxy-phenylamino)-ethylcarbamoyl]-ethyl}-amide]	++ (++, >100)	< 100 nM
COc1ccc(NCCNC(=O)[C@H](CC2CCCCC2)NC(=O)c2cc(Br)cc(Br)c2)cc1 [Compound 178, (S)-3,5-Dibromo-N-{2-cyclohexyl-1-[2-(4-methoxy-phenylamino)-ethylcarbamoyl]-ethyl}-benzamide]	+++ (+++, >1000)	< 100 nM
COc1ccc(NCCNC(=O)[C@H](CC2CCCCC2)NC(=O)c2cc(Cl)cc(Cl)c2)cc1 [Compound 179, (S)-3,5-Dichloro-N-{2-cyclohexyl-1-[2-(4-methoxy-phenylamino)-ethylcarbamoyl]-ethyl}-benzamide]	+++ (+++, >1000)	< 100 nM
COc1ccc(NCCNC(=O)[C@H](CC2CCCCC2)NC(=O)c2cc(OC)cc(OC)c2)cc1 [Compound 180, (S)-N-{2-Cyclohexyl-1-[2-(4-methoxy-phenylamino)-ethylcarbamoyl]-ethyl}-3,5-dimethoxy-benzamide]	+ (+, >10)	< 100 nM
COc1ccc(NCCNC(=O)[C@H](CC2CCCCC2)NC(=O)c2ccc(Br)s2)cc1 [Compound 182, (S)-5-Bromo-thiophene-2-carboxylic acid {2-cyclohexyl-1-[2-(4-methoxy-phenylamino)-ethylcarbamoyl]-ethyl}-amide]	+ (+, >10)	< 100 nM
COc1ccc(NCCNC(=O)[C@H](CC2CCCCC2)NC(=O)c2ccc3nc(N)sc3c2)cc1 [Compound 187, (S)-2-Amino-benzothiazole-6-carboxylic acid {2-cyclohexyl-1-[2-(4-methoxy-phenylamino)-ethylcarbamoyl]-ethyl}-amide]	+ (+, >10)	< 100 nM
COc1ccc(NCCNC(=O)[C@H](CC2CCCCC2)NC(=O)c2sc(-c3ccc(C(F)(F)F)cc3)nc2C)cc1 [Compound 188, (S)-4-Methyl-2-(4-trifluoromethyl-phenyl)-thiazole-5-carboxylic acid {2-cyclohexyl-1-[2-(4-methoxy-phenylamino)-ethylcarbamoyl]-ethyl}-amide]	+++ (+++, >1000)	< 100 nM
COc1ccc(NCCNC(=O)[C@H](CC2CCCCC2)NC(=O)c2cc(-c3ccc(Cl)cc3)cs2)cc1 [Compound 189, (S)-4-(4-Chloro-phenyl)-thiophene-2-carboxylic acid {2-cyclohexyl-1-[2-(4-methoxy-phenylamino)-ethylcarbamoyl]-ethyl}-amide]	++ (++, >100)	< 100 nM
COc1ccc(NCCNC(=O)[C@H](CC2CCCCC2)NC(=O)c2nc(C)oc2C(F)(F)F)cc1 [Compound 190, (S)-2-Methyl-5-trifluoromethyl-oxazole-4-carboxylic acid {2-cyclohexyl-1-[2-(4-methoxy-phenylamino)-ethylcarbamoyl]-ethyl}-amide]	+++ (+++, >1000)	< 100 nM
O=C(N[C@@H](CC1CCCCC1)C(=O)NCCNc1ccc(OC(F)(F)F)cc1)c1ccc(-c2cccc(F)c2)cc1 [Compound 198, (S)-3′-Fluoro-biphenyl-4-carboxylic acid {2-cyclohexyl-1-[2-(4-trifluoromethoxy-phenylamino)-ethylcarbamoyl]-ethyl}-amide]	+ (+, >10)	< 1000 nM
O=C(N[C@@H](CC1CCCCC1)C(=O)NCCNc1ccc(OC(F)(F)F)cc1)c1cccc(CN2CCOCC2)c1 [Compound 200, (S)-N-{2-Cyclohexyl-1-[2-(4-trifluoromethoxy-phenylamino)-ethylcarbamoyl]-ethyl}-3-morpholin-4-ylmethyl-benzamide]	+ (+, >10)	< 100 nM
COc1ccc(NCCNC(=O)[C@H](CCc2ccccc2)NC(=O)c2cccc(C)c2)cc1 [Compound 206, (S)-N-{1-[2-(4-Methoxy-phenylamino)-ethylcarbamoyl]-3-phenyl-propyl}-3-methyl-benzamide]	++ (++, >100)	< 1000 nM
O=C(N[C@@H](CC1CCCCC1)C(=O)NCCNc1ccc(OC(F)(F)F)cc1)c1ccc(-c2ccc(OC(F)(F)F)cc2)s1 [Compound 207, (S)-5-(4-Trifluoromethoxy-phenyl)-thiophene-2-carboxylic acid {2-cyclohexyl-1-[2-(4-trifluoromethoxy-phenylamino)-ethylcarbamoyl]-ethyl}-amide]	++ (++, >100)	< 1000 nM
COc1ccc(NCCNC(=O)[C@H](CC=Cc2ccccc2)NC(=O)c2cccc(C)c2)cc1 [Compound 208, (S)-N-{1-[2-(4-Methoxy-phenylamino)-ethylcarbamoyl]-4-phenyl-but-3-enyl}-3-methyl-benzamide]	+++ (+++, >1000)	< 100 nM
O=C(N[C@@H](CC1CCCCC1)C(=O)NCCNc1ccc(OC(F)(F)F)cc1)c1ccc(-c2cccc(OC(F)(F)F)c2)s1 [Compound 209, (S)-5-(3-Trifluoromethoxy-phenyl)-thiophene-2-carboxylic acid {2-cyclohexyl-1-[2-(4-trifluoromethoxy-phenylamino)-ethylcarbamoyl]-ethyl}-amide]	+++ (+++, >1000)	< 100 nM
